What all share (format): biochemical
For one assay, the target named is PDE1A3 (Homo sapiens, UniProt P54750). The assay is described as follows: In vitro HTRF PDE1 inhibition assay (PDE1A3). The source says:
(§1) An exemplary procedure for the in vitro Homogenous Time Resolved Fluorescence assay, which can be used to determine the inhibitory action of compounds of the invention toward PDE1 or its isoforms, follows. The HTRF PDE1 assay utilized the HTRF (Homogenous Time Resolved Fluorescence) technology, which is based on the competition between unlabeled cyclic nucleotide and cyclic nucleotide labeled with XL665 for the binding to cyclic nucleotide-specific antibody labeled with cryptate. The HTRF signal is thus inversely proportional to the concentration of cyclic nucleotide being measured. Since phosphodiesterases break down cyclic nucleotides the HTRF signal was used to determine PDE activity. The Cisbio cGMP HTRF assay kit (Cat no: 62GM2PEC) was utilized. Cyclic GMP was diluted to 200 nM in HTRF assay buffer (1 mM CaCl2, 10 mM MgCl2, 10 mM Tris-HCl, 0.1% BSA, pH 7.4). 10 μl of compound or DMSO was diluted in 200 nM cyclic GMP solution and added to wells of a 96 well white plate to give 100 nM cyclic GMP in 1% DMSO final concentration. PDE (1A3, 1B or IC) was diluted to 2× working concentration in HTRF assay buffer with 2 μg/ml calmodulin, and 10 μl was added to initiate the reaction. The plate was then incubated for 45 minutes at 37° C. d2-Labelled cyclic GMP and anti-cGMP cryptate were diluted in 50 mM phosphate buffer, 0.8 M KF, 1% Triton X100, 0.2% BSA, pH 7.0. Following incubation 10 μl d2-cGMP, then 10 μl anti cGMP cryptate were added to each well and the plate was incubated for 45 minutes at room temperature. The plate was then read on Perkin Elmer Victor at 2 different FRET readings ex/emm 340 nm/665 nm and 340 nm/615 nm. Compounds having an IC50 of <1 μM, are denoted as +++. Compounds having an IC50 of 1−10 μM, are denoted as ++. Compounds having an IC50 of 10-100 μM, are denoted as +.
For orientation: TR-FRET usually uses a lanthanide donor and a delayed reading to cut background.

Another assay concerns the target PDE1C (Homo sapiens, UniProt Q14123). The assay is described as follows: In vitro HTRF PDE1 inhibition assay (PDE1C).
Excerpt: as §1

The target in another assay is PDE1B (Homo sapiens, UniProt Q01064). The assay is described as follows: In vitro HTRF PDE1 inhibition assay (PDE1B). The essentials:
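PDE1A3, 1B or 1C with calmodulin hydrolysed 100 nM cGMP in Tris buffer pH 7.4 (1 mM CaCl2, 10 mM MgCl2, 0.1% BSA, 1% DMSO) for 45 min at 37 °C. Remaining cGMP was measured by HTRF competition (d2-cGMP, anti-cGMP cryptate; 665/615 nm). IC50 is reported in bins: <1, 1-10 and 10-100 μM.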

For orientation: IC50 means the concentration that inhibits the measured activity by half.

Consider `CCN1c2nn3c(C4CCOCC4)ncc3c(=O)n2CC1c1ccc(OC)cc1` (racemic) [Example 66], for which the IC50 on PDE1A3 (Table 23) is < 1000 nM; on PDE1C (Table 24), 1000 to 10000 nM; at PDE1B (Table 22), < 1000 nM.
Consider `CC(C)c1ncc2c(=O)n3c(nn12)N(CC1CCOCC1)CC3` [Example 1, 8-Isopropyl-1-((tetrahydro-2H-pyran-4-yl)methyl)-2,3-dihydrodiimidazo[2,1-c:1′,5′-f][1,2,4]triazin-5(1H)-one], for which the IC50 against PDE1A3 (Table 23) was < 1000 nM; on PDE1C (Table 24), 1000 to 10000 nM; against PDE1B (Table 22) it was < 1000 nM.
As for `CC(C)c1ncc2c(=O)n3c(nn12)N(CCCc1ccccn1)CC3` [Example 11], the IC50 is < 1000 nM against PDE1A3 (Table 23), 1000 to 10000 nM at PDE1C (Table 24) and < 1000 nM against PDE1B (Table 22).
On to `CC(C)CN1CCCn2c1nn1c(C(C)C)ncc1c2=O` [Example 16], for which the IC50 on PDE1A3 (Table 23), on PDE1C (Table 24) and on PDE1B (Table 22) was < 1000 nM in each case.
Turning to `CC(C)c1ncc2c(=O)n3c(nn12)N(CCC1CCOCC1)CCC3` [Example 24], the IC50 on PDE1A3 (Table 23), on PDE1C (Table 24) and against PDE1B (Table 22) was < 1000 nM each time.
Consider `CC(C)c1ncc2c(=O)n3c(nn12)N(CC1CCOCC1)CCC3` [Example 25], for which the IC50 against PDE1A3 (Table 23), against PDE1C (Table 24) and against PDE1B (Table 22) was < 1000 nM each time.
On to `CC(C)c1ncc2c(=O)n3c(nn12)N(Cc1ccc(C#N)cc1)CCC3` [Example 30], for which the IC50 at PDE1A3 (Table 23), against PDE1C (Table 24) and at PDE1B (Table 22) was < 1000 nM each time.
As to `CC(C)(C)CCN1CCn2c1nn1c(C3CCOCC3)ncc1c2=O` [Example 55], the IC50 at PDE1A3 (Table 23), at PDE1C (Table 24) and on PDE1B (Table 22) was < 1000 nM each time.
Regarding `O=c1c2cnc(C3CCOCC3)n2nc2n1CCN2CCCC(F)(F)F` [Example 56], the IC50 against PDE1A3 (Table 23) is 1000 to 10000 nM; at PDE1C (Table 24), 10000 to 100000 nM; against PDE1B (Table 22), < 1000 nM.
Consider `O=c1c2cnc(C3CCOCC3)n2nc2n1CCCN2Cc1ccccc1` [Example 59], for which the IC50 at PDE1A3 (Table 23) was < 1000 nM; on PDE1C (Table 24) it was 1000 to 10000 nM; at PDE1B (Table 22), < 1000 nM.
Regarding `CC1CN(CC2CCOCC2)c2nn3c(C(C)C)ncc3c(=O)n2C1` (centres unmarked) [Example 64], the IC50 against PDE1A3 (Table 23), against PDE1C (Table 24) and against PDE1B (Table 22) was < 1000 nM each time.
Regarding `CN1c2nn3c(C4CCOCC4)ncc3c(=O)n2CCC1c1ccc(Cl)cc1` (centres unmarked) [Example 69], the concentration for half-maximal inhibition (IC50) against PDE1A3 (Table 23) is < 1000 nM; against PDE1C (Table 24), 1000 to 10000 nM; against PDE1B (Table 22) it was < 1000 nM.
`O=c1c2cnc(C3CCOCC3)n2nc2n1CCCN2CCC1(C(F)(F)F)CC1` [Example 188]: the IC50 on PDE1A3 (Table 26) and against PDE1C (Table 27) was < 1000 nM each time.
Take `O=c1c2cnc(C3CCOCC3)n2nc2n1CCCN2C[C@H]1CC[C@@H](C(F)(F)F)CC1` [Example 195]: on PDE1B (Table 25), the IC50 is < 1000 nM.
Regarding `CCO[C@H]1CC[C@@H](CN2CCCn3c2nn2c(C4CCOCC4)ncc2c3=O)CC1` [Example 196], the IC50 on PDE1B (Table 25) was < 1000 nM.
Consider `O=c1c2cnc(C3CCOCC3)n2nc2n1CCCN2CC1CC1(F)F` (centres unmarked) [Example 197], for which, at PDE1B (Table 25), the 50% inhibitory concentration (IC50) is < 1000 nM.
`CC1CN(CCCC(F)(F)F)c2nn3c(C4CCOCC4)ncc3c(=O)n2C1` (centres unmarked) [Example 198]: at PDE1B (Table 25), the IC50 is < 1000 nM.
With `CC(C)c1ncc2c(=O)n3c(nn12)N(CC1CCOCC1)CC(C)(C)C3` [Example 199], at PDE1B (Table 25), the half-maximal inhibitory concentration (IC50) was < 1000 nM.
Turning to `CC(C)c1ncc2c(=O)n3c(nn12)N(CC1CCOCC1)CC(F)(F)C3` [Example 201], at PDE1B (Table 25), the IC50 is < 1000 nM.
On to `CC(C)CN1CC(F)(F)Cn2c1nn1c(C3CCOCC3)ncc1c2=O` [Example 202], for which the IC50 against PDE1B (Table 25) is < 1000 nM.
Regarding `CC(C)CCN1CC(F)(F)Cn2c1nn1c(C3CCOCC3)ncc1c2=O` [Example 203], the IC50 at PDE1B (Table 25) is < 1000 nM.
Take `CC(C)n1ncc2c(=O)n3c(nc21)N(Cc1ccc(C2CCOCC2)cc1)CC3` [Example 204]: the IC50 against PDE1B (Table 25) is < 1000 nM.
On to `CC(C)n1ncc2c(=O)n3c(nc21)N(Cc1ccc(-c2ccc(F)cn2)cc1)CC3` [Example 205], for which, on PDE1B (Table 25), the IC50 is < 1000 nM.
With `CC(C)n1ncc2c(=O)n3c(nc21)N(CC1CCC(F)(F)CC1)CC3` [Example 206], the IC50 at PDE1B (Table 25) is < 1000 nM.
Turning to `O=c1c2cnn(C3CCOCC3)c2nc2n1CCN2Cc1ccc(-c2ccccn2)cc1` [Example 207], on PDE1B (Table 25), the IC50 was < 1000 nM.
As for `O=c1c2cnn(C3CCOCC3)c2nc2n1CCN2Cc1ccc(-c2ccc(F)cn2)cc1` [Example 208], the IC50 against PDE1B (Table 25) is < 1000 nM.
Turning to `O=c1c2cnn(C3CCOCC3)c2nc2n1CCN2Cc1ccc(C(F)(F)F)cc1` [Example 209], at PDE1B (Table 25), the half-maximal inhibitory concentration (IC50) is < 1000 nM.
`O=c1c2cnn(C3CCOCC3)c2nc2n1CCN2CC1CCC(F)(F)CC1` [Example 210]: the 50% inhibitory concentration (IC50) against PDE1B (Table 25) was < 1000 nM.
For the molecule `CC(C)(C)CCN1CCn2c1nc1c(cnn1C1CCOCC1)c2=O` [Example 211], the IC50 against PDE1B (Table 25) is < 1000 nM.
Still for that read-out and setting: the result for `O=c1c2cnn(C3CCOCC3)c2nc2n1CCN2CCCC(F)(F)F` [Example 212] reads < 1000 nM; that for `CC(C)CCN1CCn2c1nc1c(cnn1C1CCOCC1)c2=O` [Example 213], < 1000 nM.
For the molecule `CC(C)n1ncc2c(=O)n3c(nc21)N(Cc1ccc(Cl)cn1)CCC3` [Example 214], the half-maximal inhibitory concentration (IC50) against PDE1B (Table 25) was < 1000 nM.
On to `CC(C)n1ncc2c(=O)n3c(nc21)N(Cc1ccc(-c2ccccn2)cc1)CCC3` [Example 215], for which the IC50 on PDE1B (Table 25) is < 1000 nM.
As to `CC(C)n1ncc2c(=O)n3c(nc21)N(Cc1ccc(C2CCOCC2)cc1)CCC3` [Example 216], the IC50 against PDE1B (Table 25) was < 1000 nM.
On to `O=c1c2cnn(C3CCOCC3)c2nc2n1CCCN2Cc1ccc(Cl)cn1` [Example 217], for which, on PDE1B (Table 25), the IC50 was < 1000 nM.
On to `O=c1c2cnn(C3CCOCC3)c2nc2n1CCCN2Cc1ccc(C(F)(F)F)cc1` [Example 218], for which the IC50 against PDE1B (Table 25) is < 1000 nM.
`O=c1c2cnn(C3CCOCC3)c2nc2n1CCCN2Cc1ccc(F)cc1` [Example 219]: the concentration for half-maximal inhibition (IC50) against PDE1B (Table 25) was < 1000 nM.
For the molecule `O=c1c2cnn(C3CCOCC3)c2nc2n1CCCN2Cc1ccc(-c2ccccn2)cc1` [Example 220], the IC50 against PDE1B (Table 25) was < 1000 nM.
Regarding `O=c1c2cnn(C3CCOCC3)c2nc2n1CCCN2Cc1ccc(-c2ccc(F)cn2)cc1` [Example 221], on PDE1B (Table 25), the IC50 is < 1000 nM.
Regarding `O=c1c2cnn(C3CCOCC3)c2nc2n1CCCN2CCCC(F)(F)F` [Example 222], the IC50 against PDE1B (Table 25) is < 1000 nM.
Same read-out and setting: with `O=c1c2cnn(C3CCOCC3)c2nc2n1CCCN2CC1CCC(F)(F)CC1` [Example 223] the figure was < 1000 nM; with `CC(C)CCN1CCCn2c1nc1c(cnn1C1CCOCC1)c2=O` [Example 224], < 1000 nM.
`O=c1c2cnn(C3CCOCC3)c2nc2n1CCCN2CCCCC(F)(F)F` [Example 225]: the IC50 against PDE1B (Table 25) is < 1000 nM.
Take `CC(C)CN1CCCn2c1nc1c(cnn1C1CCOCC1)c2=O` [Example 226]: the IC50 on PDE1B (Table 25) was < 1000 nM.
Still for that read-out and setting: with `O=c1c2cnn(C3CCOCC3)c2nc2n1CCCN2CC1CC1(F)F` (centres unmarked) [Example 227] the figure was < 1000 nM; with `CC(C)(C)CN1CCCn2c1nc1c(cnn1C1CCOCC1)c2=O` [Example 228], < 1000 nM.
As for `CC(C)(C)CCN1CCCn2c1nc1c(cnn1C1CCOCC1)c2=O` [Example 229], the IC50 against PDE1B (Table 25) was < 1000 nM.
As for `CO[C@@H](C)c1ncc2c(=O)n3c(nn12)N(CCCC(F)(F)F)CC3` [Example 230], the IC50 against PDE1B (Table 25) is < 1000 nM.
Still for that read-out and setting: with `CO[C@H](C)c1ncc2c(=O)n3c(nn12)N(CCCC(F)(F)F)CC3` [Example 231] the figure was 1000 to 10000 nM; with `Cc1nc(C2CCOCC2)n2nc3n(c(=O)c12)CCN3CCC(C)C` [Example 234, 6-Methyl-1-(3-methylbutyl)-8-(tetrahydro-2H-pyran-4-yl)-2,3-dihydro-1H,5H-diimidazo[2,1-c:5′,1′-f][1,2,4]triazin-5-one], 1000 to 10000 nM; with `CC(C)CCN1CCn2c1nn1c(C3CCOCC3)nc(C#N)c1c2=O` [Example 235, 1-(3-Methylbutyl)-5-oxo-8-(tetrahydro-2H-pyran-4-yl)-2,3-dihydro-1H,5H-diimidazo[2,1-c 5′,1′-f][1,2,4]triazine-6-carbonitrile], 1000 to 10000 nM.
Turning to `CC(C)CCN1CCn2c1nn1c(C3CCOCC3)nc(Cl)c1c2=O` [Example 236, 6-Chloro-1-(3-methylbutyl)-8-(tetrahydro-2H-pyran-4-yl)-2,3-dihydro-1H,5H-diimidazo[2,1-c:5′,1′-f][1,2,4]triazin-5-one], the 50% inhibitory concentration (IC50) against PDE1B (Table 25) is < 1000 nM.

Values taken from patent US20170273985A1, “TRICYCLIC DERIVATIVE” (Sunovion Pharmaceuticals Inc., priority 2014, published 2017).
